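Briefly, cells in 96-well plates were exposed to five compound concentrations for 48 h, and endpoints were estimated by linear interpolation. At the GI50, growth is halved. At the TGI there is no net growth.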
What was measured:
Test in all cases: NCI-60 cell line screen, 48 h
[1] = test system: HCT-15 colon
[2] = test system: HCT-116 colon
[3] = test system: RXF 393 renal
[4] = test system: OVCAR-8 ovarian
[5] = test system: NCI-H23 lung
[6] = test system: HOP-62 NSCLC
[7] = test system: DU-145 prostate
[8] = test system: LOX IMVI melanoma
[9] = test system: NCI-H460 lung
[10] = test system: SK-OV-3 ovarian
[11] = test system: HT29 colon
[12] = test system: T-47D breast
[13] = test system: A549 NSCLC
[14] = test system: MDA-MB-468 breast
[15] = test system: HL-60(TB) leukemia
[16] = test system: HS 578T breast
[17] = test system: CCRF-CEM leukemia
[18] = test system: MOLT-4 leukemia
[19] = test system: RPMI-8226 leukemia
[20] = test system: UACC-257 melanoma
[21] = test system: SNB-75 CNS
[22] = test system: NCI-H522 lung
[23] = test system: SR leukemia
[24] = test system: SF-268 CNS
[25] = test system: MDA-MB-435
[26] = test system: K-562 leukemia
[27] = test system: SK-MEL-5 melanoma
[28] = test system: SK-MEL-2 melanoma
[29] = test system: BT-549 breast
[30] = test system: ACHN renal
[31] = test system: CAKI-1 renal
[32] = test system: HOP-92 NSCLC
[33] = test system: HCC-2998 colon
[34] = test system: SF-539 CNS
[35] = test system: OVCAR-4 ovarian
[36] = test system: SK-MEL-28 melanoma
[37] = test system: OVCAR-3 ovarian
[38] = test system: MDA-MB-231 breast
[39] = test system: NCI-H226 lung
[40] = test system: SN12C renal
[41] = test system: SW-620 colon
[42] = test system: M14 melanoma
[43] = test system: IGROV1 ovarian
[44] = test system: COLO 205 colon
[45] = test system: A498 renal
[46] = test system: KM12 colon
[47] = test system: SNB-19 CNS
[48] = test system: MALME-3M melanoma
[49] = test system: UACC-62 melanoma
[50] = test system: UO-31 renal
[51] = test system: NCI/ADR-RES ovarian
[52] = test system: SF-295 CNS
[53] = test system: EKVX NSCLC
[54] = test system: 786-0 renal
[55] = test system: TK-10 renal
[56] = test system: U251 CNS
[57] = test system: MCF7 breast
[58] = test system: OVCAR-5 ovarian
[59] = test system: PC-3 prostate

COc1cc(OC)c2c3nc4cc(C)c(C)cc4nc3n(CCN(C)C)c2c1
GI50 [1]: 11.4 µM | TGI [1]: 24.7 µM | GI50 [2]: 13.9 µM | TGI [2]: 30.3 µM | GI50 [3]: 11.8 µM | TGI [3]: 25.1 µM | GI50 [4]: 2.4 µM | TGI [4]: 6.84 µM | GI50 [5]: 13.1 µM | TGI [5]: 27.8 µM | GI50 [6]: 5.75 µM | TGI [6]: 22.2 µM | GI50 [7]: 14.5 µM | TGI [7]: 28.2 µM | GI50 [8]: 8.99 µM | TGI [8]: 22.7 µM | GI50 [9]: 12.1 µM | TGI [9]: 26.5 µM | GI50 [10]: 16.7 µM | TGI [10]: 32.1 µM | GI50 [11]: 4.88 µM | TGI [11]: 31.4 µM | GI50 [12]: 12.9 µM | TGI [12]: 32.1 µM | GI50 [13]: 4.98 µM | TGI [13]: 22.9 µM | GI50 [14]: 12.8 µM | TGI [14]: 26.4 µM | GI50 [15]: 16.3 µM | TGI [15]: 36.4 µM | GI50 [16]: 15.7 µM | TGI [16]: 39.5 µM | GI50 [17]: 22.4 µM | TGI [17]: > 100 µM | GI50 [18]: 10.6 µM | TGI [18]: 41.7 µM | GI50 [19]: 19.9 µM | TGI [19]: > 100 µM | GI50 [20]: 14.9 µM | TGI [20]: 31.9 µM | GI50 [21]: 12.1 µM | TGI [21]: 25.5 µM | GI50 [22]: 13.5 µM | TGI [22]: 33.6 µM | GI50 [23]: 4.29 µM | TGI [23]: 50.7 µM | GI50 [24]: 14.4 µM | TGI [24]: 32.1 µM | GI50 [25]: 14.5 µM | TGI [25]: 28.2 µM | GI50 [26]: 3.1 µM | TGI [26]: 25.3 µM | GI50 [27]: 16.1 µM | TGI [27]: 29.8 µM | GI50 [28]: 16.7 µM | TGI [28]: 35.4 µM | GI50 [29]: 14.2 µM | TGI [29]: 28.5 µM | GI50 [30]: 11.1 µM | TGI [30]: 23.1 µM | GI50 [31]: 15.9 µM | TGI [31]: 29.8 µM | GI50 [32]: 11.5 µM | TGI [32]: 31.1 µM | GI50 [33]: 12.7 µM | TGI [33]: 26.1 µM | GI50 [34]: 15 µM | TGI [34]: 28.3 µM | GI50 [35]: 14.9 µM | TGI [35]: 33.6 µM | GI50 [36]: 15.6 µM | TGI [36]: 29.3 µM | GI50 [37]: 16.1 µM | TGI [37]: 30.6 µM | GI50 [38]: 11.6 µM | TGI [38]: 24.2 µM | GI50 [39]: 14.4 µM | TGI [39]: 32.3 µM | GI50 [40]: 11.5 µM | TGI [40]: 24.6 µM | GI50 [41]: 4.65 µM | TGI [41]: 18.7 µM | GI50 [42]: 13.5 µM | TGI [42]: 30.6 µM | GI50 [43]: 12 µM | TGI [43]: 26.1 µM | GI50 [44]: 5.51 µM | TGI [44]: 20 µM | GI50 [45]: > 100 µM | TGI [45]: > 100 µM | GI50 [46]: 17.5 µM | TGI [46]: 34.2 µM | GI50 [47]: 12.9 µM | TGI [47]: 25.7 µM | GI50 [48]: 14.1 µM | TGI [48]: 28.1 µM | GI50 [49]: 15.2 µM | TGI [49]: 29.1 µM | GI50 [50]: 6.21 µM | TGI [50]: 20.2 µM | GI50 [51]: 10 µM | TGI [51]: 27.7 µM | GI50 [52]: 13.1 µM | TGI [52]: 26.2 µM | GI50 [53]: 14.7 µM | TGI [53]: 28.3 µM | GI50 [54]: 14.2 µM | TGI [54]: 29.2 µM | GI50 [55]: 16.5 µM | TGI [55]: 31.9 µM | GI50 [56]: 12.8 µM | TGI [56]: 28 µM | GI50 [57]: 4.75 µM | TGI [57]: 19.2 µM | GI50 [58]: 15.1 µM | TGI [58]: 29.1 µM | GI50 [59]: 15.5 µM | TGI [59]: 61.4 µM

Reference: PubChem BioAssay (NCI)
